In US9290487B2, “Pharmaceutical composition for treating diabetes” (Ajinomoto Co., Inc., priority 2011, dated 2016):
pEC50: −log10 of the molar value.

Columns and labels:
[1] = target: human GYS1 (glycogen synthase) (Homo sapiens (Human), UniProt P13807); test: Measurement of glycogen synthase activity (coupled pyruvate kinase/lactate dehydrogenase assay, absorbance at 340 nm); format: biochemical; details: concentration inducing relative activity of 50% (100% = Ex. 1 of WO/2011/058154 at 10 μM); incubation at 37° C. for 20 minutes (Examples 11 to 75)
Outline: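 GYS1 expressed in HEK293T cells, with the lysate pellet used as enzyme. Reaction with glucose-6-phosphate, glycogen, UDP-glucose, PEP and NADH, pH 7.3, incubated 30° C for 25 min or 37° C for 20 min, then A340 read. EC50 relative to a reference activator at 10 μM set as 100%.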

PPAR-α = PPAR-α (Homo sapiens (Human), UniProt Q07869); test: Measurement of PPAR-α activity (GAL4 luciferase reporter assay in CV-1 cells); format: cell-based; details: 100(A/B), B = compound in WO/2011/058154 at 100 μM, test concentrations not stated for these examples, read-out: PPARα relative fold induction (%)
Description: The PPAR-α activity was measured according to the published article (THE JOURNAL OF BIOLOGICAL CHEMISTRY Vol. 270, No. 22, 12953-12956, 1995).
Plasmids used for the PPAR-α activity measurement were constructed as follows. A luciferase expression plasmid (UASx5-TK-Luc) used was obtained by introducing a sequence, in which five yeast GAL4-binding sequences are linked in tandem, upstream of a thymidine kinase promoter of pTAL-Luc (Takara Bio Inc., 6252-1). A PPAR-α receptor expression plasmid (hGR-GAL4-hPPARα) used was obtained by introducing a human GR N-terminal region (1-76 aa), a yeast GAL4 DNA-binding region (1-147 aa), and a PPARα ligand-binding region (167-468 aa) between a Not I site and a Sal I site of pExchange-1 Core Vector (Invitrogen Corporation, 211176).
A reporter assay was conducted by the following method using Cercopithecus aethiops kidney-derived CV-1 cells. The CV-1 cells were seeded in a 96-well plate (Thermo Fisher Scientific Inc., 4938) at 2×10^4 cells/well using a 10% FBS-containing DMEM (Nacalai Tesque, Inc., 0845874) medium. After culturing under conditions of 37° C. and 5% CO2 for 2 hours, the plasmids were transfected. Lipofectamine LTX (Invitrogen Corporation, 15338-100) was used for the transfection according to the attached manual. The plasmid solution was prepared by adding a mixture solution of the luciferase expression plasmid and the PPAR-α receptor expression plasmid to OPTI-MEM I (Invitrogen Corporation, 11058-021). After the transfection was conducted, the test compound was added, and cultured at 37° C. in the presence of 5% CO2 for 18 to 20 hours. After the culturing was completed, the luciferase activity was measured with Luminescensor JNR (ATTO) using Bright-Glo (Promega Corporation, E2620).
The fold induction of PPAR-α by the test compounds was calculated by the following method. For the compounds of Examples 1, 4, 5, 7, and 9, PPAR-α relative fold induction (%) was defined as 100 (A/B), where A represents the maximum value of PPAR-α activities with the test compound at 0.3 μM, 1 μM, 3 μM, 10 μM, 30 μM, and 100 μM, and B represents the PPAR-α activity with the compound in WO/2011/058154 at 100 μM. For the compounds of Examples 11, 15, 19, 22, 26, and 32, PPAR-α relative fold induction (%) was defined as 100 (A/B), where A represents the maximum value of PPAR-α activities with the test compound at 3 μM, 10 μM, 30 μM, and 100 μM, and B represents the PPAR-α activity with the compound in WO/2011/058154 at 100 μM.

PPAR-α, sequence (Q07869 167-468): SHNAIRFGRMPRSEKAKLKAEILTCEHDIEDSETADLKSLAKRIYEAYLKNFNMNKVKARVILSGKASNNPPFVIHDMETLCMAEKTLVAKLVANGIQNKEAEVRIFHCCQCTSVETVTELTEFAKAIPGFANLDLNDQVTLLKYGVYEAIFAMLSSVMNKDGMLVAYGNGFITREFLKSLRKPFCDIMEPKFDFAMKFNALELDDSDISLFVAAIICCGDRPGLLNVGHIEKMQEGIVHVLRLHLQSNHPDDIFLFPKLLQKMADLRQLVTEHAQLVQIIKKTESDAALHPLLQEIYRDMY
human GYS1 (glycogen synthase), sequence (P13807 whole entry): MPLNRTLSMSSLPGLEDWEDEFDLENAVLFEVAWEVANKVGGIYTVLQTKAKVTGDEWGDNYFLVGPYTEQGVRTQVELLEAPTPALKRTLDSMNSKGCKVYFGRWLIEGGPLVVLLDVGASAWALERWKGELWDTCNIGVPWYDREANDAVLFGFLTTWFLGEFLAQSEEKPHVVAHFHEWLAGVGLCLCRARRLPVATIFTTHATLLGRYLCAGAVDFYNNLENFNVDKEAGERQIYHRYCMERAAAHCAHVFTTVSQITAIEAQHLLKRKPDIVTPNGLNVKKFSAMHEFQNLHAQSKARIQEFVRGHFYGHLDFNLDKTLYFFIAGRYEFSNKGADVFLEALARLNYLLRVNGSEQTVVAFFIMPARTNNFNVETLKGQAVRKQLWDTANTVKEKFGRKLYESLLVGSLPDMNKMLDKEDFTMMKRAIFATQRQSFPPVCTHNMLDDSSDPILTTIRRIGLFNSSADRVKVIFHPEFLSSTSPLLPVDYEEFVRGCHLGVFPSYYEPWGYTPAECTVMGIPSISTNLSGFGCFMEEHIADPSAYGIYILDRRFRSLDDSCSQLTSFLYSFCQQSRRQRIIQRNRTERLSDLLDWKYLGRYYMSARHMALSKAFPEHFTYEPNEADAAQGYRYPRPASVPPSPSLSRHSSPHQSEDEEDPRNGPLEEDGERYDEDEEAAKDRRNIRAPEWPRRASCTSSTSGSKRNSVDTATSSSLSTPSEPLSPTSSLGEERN

Compound	pEC50 [1]	Emax (PPAR-α)
O=C(O)[C@@H]1CCCN1C(=O)c1cccc(COc2ccc(-c3cc(F)c(F)cc3/C=N/O)cc2)c1 [compound of Ex. 52, 1-{3-[({4′,5′-difluoro-2′-[(hydroxyimino)methyl]biphenyl-4-yl}oxy)methyl]benzoyl}-L-proline]	7.21	18%
N#Cc1coc2c(-c3ccc(OCc4cccc(C(=O)N5CCC[C@H]5C(=O)O)c4)cc3)cc(F)c(F)c12 [compound of Ex. 53]	6.21	15%
O=C(O)[C@@H]1CCCN1C(=O)c1cccc(COc2ccc(-c3cc(F)c(F)c4c(CO)coc34)cc2)c1 [compound of Ex. 56, 1-[3-({4-[4,5-difluoro-3-(hydroxymethyl)-1-benzofuran-7-yl]phenoxy}methyl)benzoyl]-L-proline]	7.36	6.4%
O=C(O)[C@@H]1CCCN1C(=O)c1cccc(COc2ccc(-c3cc(F)c(F)c4cc(/C=N/O)oc34)cc2)c1 [compound of Ex. 58, 1-{3-[(4-{4,5-difluoro-2-[(hydroxyimino)methyl]-1-benzofuran-7-yl}phenoxy)methyl]benzoyl}-L-proline]	7.35	19%
N#CCc1cc(F)c(F)cc1-c1ccc(OCc2cccc(C(=O)N3CCC[C@H]3C(=O)O)c2)cc1 [compound of Ex. 61, 1-[3-({[2′-(cyanomethyl)-4′,5′-difluorobiphenyl-4-yl]oxy}methyl)benzoyl]-L-proline]	6.10	10%
O=Cc1cc2c(F)c(F)cc(-c3ccc(OCc4cccc(C(=O)N5CCC[C@H]5C(=O)O)c4)cc3)c2s1 [compound of Ex. 65, 1-(3-{[4-(4,5-difluoro-2-formyl-1-benzothien-7-yl)phenoxy]methyl}benzoyl)-L-proline]	6.52	11%
O=C(O)[C@@H]1CCCN1C(=O)c1cccc(COc2ccc(-c3cc(F)c(F)c4cc(CO)sc34)cc2)c1 [compound of Ex. 66, 1-[3-({4-[4,5-difluoro-2-(hydroxymethyl)-1-benzothien-7-yl]phenoxy}methyl)benzoyl]-L-proline]	7.13	18%
O=C(O)[C@@H]1CCCN1C(=O)c1cccc(COc2ccc(-c3cc(F)c(F)cc3SCCO)cc2)c1 [compound of Ex. 69, 1-{3-[({4′,5′-difluoro-2′-[(2-hydroxyethyl)thio]biphenyl-4-yl}oxy)methyl]benzoyl}-L-proline]	6.89	8.6%
O=C(O)[C@@H]1CCCN1C(=O)c1cccc(COc2ccc(-c3cc(F)c(F)c4cc(CO)oc34)cc2)c1 [compound of Ex. 70, 1-[3-({4-[4,5-difluoro-2-(hydroxymethyl)-1-benzofuran-7-yl]phenoxy}methyl)benzoyl]-L-proline]	6.70	7.9%
N#CCSc1cc(F)c(F)cc1-c1ccc(OCc2cccc(C(=O)N3CCC[C@H]3C(=O)O)c2)cc1 [compound of Ex. 71, 1-{3-[({2′-[(cyanomethyl)thio]-4′,5′-difluorobiphenyl-4-yl}oxy)methyl]benzoyl}-L-proline]	7.42	8.6%
N#CCCSc1cc(F)c(F)cc1-c1ccc(OCc2cccc(C(=O)N3CCC[C@H]3C(=O)O)c2)cc1 [compound of Ex. 72, 1-{3-[({2′-[(2-cyanoethyl)thio]-4′,5′-difluorobiphenyl-4-yl}oxy)methyl]benzoyl}-L-proline]	6.72	15%
